Measured values from US12643924B2, “Cardiac-specific targeting-peptide (CTP), compositions, and uses thereof” (University of Pittsburgh—Of the Commonwealth System of …, priority 2018, dated 2026).
Where no end group is shown, it is not given here.

How the values were obtained:
H9C2 cells [1] = test: Fluorescence activated cell sorting of H9C2 cells after 30 min incubation with 10 uM peptide (median Cy5.5); format: cell-based, rat; conditions: for Corrected Median Cy5.5 / Raw Median Cy5.5: H9C2 cells, 30 min incubation, 10 uM peptide, single replicates; for Corrected Median Cy5.5: corrected for peptide fluorescence; for Average Correction: average of corrected median Cy5.5, H9C2 cells, FIG. 1C
Procedure: (§1) Variants of SEQ ID NO: 1 in which every amino acid was systematically mutated to alanine were synthesized in the University of Pittsburgh Peptide Synthesis Facility. Each variant was conjugated to the Cyanine5.5 fluorescent dye (Cy5.5). The rat cardiomyocyte cell line H9C2 (ATCC, catalogue #: CRL-1446) was incubated for 30 minutes at 37° C. with Dimethyl sulfoxide (DMSO) as a control, or the alanine peptide variants. Cells were then washed 3 times with PBS, trypsinized and resuspended, stained for live/dead cells, and then FACS sorted for Cy5.5 positive cells.

H9C2 cells [2] = test: Alanine scan: percentage of Cy5.5 positive H9C2 cells by FACS; format: cell-based, rat; conditions: percentage of Cy5.5 positive H9C2 cells normalized to non-mutated peptide (SEQ ID NO: 1); Cy5.5-conjugated peptides, 30 minutes at 37° C.
Procedure: as §1
The percentage of Cy5.5 positive H9C2 cells, normalized to the non-mutated peptide (SEQ ID NO: 1), for each peptide variant is summarized in Table 2 below.

## APWHLSSQYSRT (also: Cy5.5 label, site not given here) [CTP, 12-amino acid cardiac-specific targeting peptide, tested conjugated to Cy5.5]
H9C2 cells [1]; listed as CTP_001
  Corrected Median Cy5.5: 5652.0
  Raw Median Cy5.5: 5652
H9C2 cells [1]; listed as CTP_002
  Corrected Median Cy5.5: 6028.0
  Raw Median Cy5.5: 6028
H9C2 cells [1]; listed as CTP_003
  Corrected Median Cy5.5: 6308.0
  Raw Median Cy5.5: 6308
H9C2 cells [1]
  Average Correction: 5996
H9C2 cells [2]
  % transduction of H9C2 Cells: 100%

## APWALSSQYSRT (also: Cy5.5 conjugate, site not given here) [H4A, alanine variant of CTP, Cy5.5 conjugated]
H9C2 cells [1]; listed as H4A_001
  Corrected Median Cy5.5: 7666.1
  Raw Median Cy5.5: 7173
H9C2 cells [1]; listed as H4A_002
  Corrected Median Cy5.5: 8011.3
  Raw Median Cy5.5: 7496
H9C2 cells [1]; listed as H4A_003
  Corrected Median Cy5.5: 6934.0
  Raw Median Cy5.5: 6488
H9C2 cells [1]
  Average Correction: 7537.1
H9C2 cells [2]
  % transduction of H9C2 Cells: 55.05%

## APWHLSSQYSRA (also: Cy5.5 conjugate, site not given here) [T12A, alanine variant of CTP, Cy5.5 conjugated]
H9C2 cells [1]; listed as T12A_001
  Corrected Median Cy5.5: 14307.2
  Raw Median Cy5.5: 18458
H9C2 cells [1]; listed as T12A_002
  Corrected Median Cy5.5: 15682.3
  Raw Median Cy5.5: 20232
H9C2 cells [1]; listed as T12A_003
  Corrected Median Cy5.5: 15498.6
  Raw Median Cy5.5: 19995
H9C2 cells [1]
  Average Correction: 15162.7
H9C2 cells [2]
  % transduction of H9C2 Cells: 90.33%

## APWHASSQYSRT (also: Cy5.5 conjugate, site not given here) [L5A, alanine variant of CTP, Cy5.5 conjugated]
H9C2 cells [1]; listed as L5A_001
  Corrected Median Cy5.5: 5077.5
  Raw Median Cy5.5: 3107
H9C2 cells [1]; listed as L5A_002
  Corrected Median Cy5.5: 5522.0
  Raw Median Cy5.5: 3379
H9C2 cells [1]; listed as L5A_003
  Corrected Median Cy5.5: 5370.0
  Raw Median Cy5.5: 3286
H9C2 cells [1]
  Average Correction: 5323.2
H9C2 cells [2]
  % transduction of H9C2 Cells: 87.81%

## APWHLASQYSRT (also: Cy5.5 conjugate, site not given here) [S6A, alanine variant of CTP, Cy5.5 conjugated]
H9C2 cells [1]; listed as S6A_001
  Corrected Median Cy5.5: 17793.0
  Raw Median Cy5.5: 22342
H9C2 cells [1]; listed as S6A_002
  Corrected Median Cy5.5: 18393.5
  Raw Median Cy5.5: 23096
H9C2 cells [1]; listed as S6A_003
  Corrected Median Cy5.5: 20420.3
  Raw Median Cy5.5: 25641
H9C2 cells [1]
  Average Correction: 18868.9
H9C2 cells [2]
  % transduction of H9C2 Cells: 107.21%

## APWHLSSAYSRT (also: Cy5.5 conjugate, site not given here) [Q8A, alanine variant of CTP, Cy5.5 conjugated]
H9C2 cells [1]; listed as Q8A_001
  Corrected Median Cy5.5: 9725.5
  Raw Median Cy5.5: 10041
H9C2 cells [1]; listed as Q8A_002
  Corrected Median Cy5.5: 9339.0
  Raw Median Cy5.5: 9642
H9C2 cells [1]; listed as Q8A_003
  Corrected Median Cy5.5: 9049.4
  Raw Median Cy5.5: 9343
H9C2 cells [1]
  Average Correction: 9371.3
H9C2 cells [2]
  % transduction of H9C2 Cells: 67.35%

## APAHLSSQYSRT (also: Cy5.5 conjugate, site not given here) [W3A, alanine variant of CTP, Cy5.5 conjugated]
H9C2 cells [1]; listed as W3A_001
  Corrected Median Cy5.5: 5369.7
  Raw Median Cy5.5: 4862
H9C2 cells [1]; listed as W3A_002
  Corrected Median Cy5.5: 5369.7
  Raw Median Cy5.5: 4862
H9C2 cells [1]; listed as W3A_003
  Corrected Median Cy5.5: 5258.1
  Raw Median Cy5.5: 4761
H9C2 cells [1]
  Average Correction: 5332.5
H9C2 cells [2]
  % transduction of H9C2 Cells: 75.81%

## APWHLSSQYART (also: Cy5.5 conjugate, site not given here) [S10A, alanine variant of CTP, Cy5.5 conjugated]
H9C2 cells [1]; listed as S10A_001
  Corrected Median Cy5.5: 3707.6
  Raw Median Cy5.5: 1722
H9C2 cells [1]; listed as S10A_002
  Corrected Median Cy5.5: 3658.1
  Raw Median Cy5.5: 1699
H9C2 cells [1]; listed as S10A_003
  Corrected Median Cy5.5: 3959.6
  Raw Median Cy5.5: 1839
H9C2 cells [1]
  Average Correction: 3775.1
H9C2 cells [2]
  % transduction of H9C2 Cells: 30.61%

## APWHLSAQYSRT (also: Cy5.5 conjugate, site not given here) [S7A, alanine variant of CTP, Cy5.5 conjugated]
H9C2 cells [1]; listed as S7A_001
  Corrected Median Cy5.5: 21208.1
  Raw Median Cy5.5: 20184
H9C2 cells [1]; listed as S7A_002
  Corrected Median Cy5.5: 23475.6
  Raw Median Cy5.5: 22342
H9C2 cells [1]; listed as S7A_003
  Corrected Median Cy5.5: 23755.1
  Raw Median Cy5.5: 22608
H9C2 cells [1]
  Average Correction: 22813.0
H9C2 cells [2]
  % transduction of H9C2 Cells: 54.32%

## APWHLSSQYSAT (also: Cy5.5 conjugate, site not given here) [R11A, alanine variant of CTP, Cy5.5 conjugated]
H9C2 cells [1]; listed as R11A_001
  Corrected Median Cy5.5: 10237.9
  Raw Median Cy5.5: 9555
H9C2 cells [1]; listed as R11A_002
  Corrected Median Cy5.5: 10010.7
  Raw Median Cy5.5: 9343
H9C2 cells [1]; listed as R11A_003
  Corrected Median Cy5.5: 10518.6
  Raw Median Cy5.5: 9817
H9C2 cells [1]
  Average Correction: 10255.7
H9C2 cells [2]
  % transduction of H9C2 Cells: 32.75%
